{"source": "PubChem BioAssay AID1745844", "about": "(Carcinogenic Potency Database (CPDB), 2022)", "test_system": "rodent lifetime carcinogenesis bioassay, tumor incidence TD50", "assay": "carcinogenic potency in animals, long-term in vivo studies, CPDB compilation (AID 1745844)", "note": "Activity calls are given as the source filed them. The rule behind the calls is not given here.", "data": [{"smiles": "NC(=O)N(CCO)N=O", "values": [{"measurement": "TD50", "setting": "mouse, strain Swiss, females, in drinking water, site: all sites, lesion: lymphoma, dosed 50 weeks, study length 51 weeks", "value": 0.603, "unit": "mg/kg/day"}, {"measurement": "TD50", "setting": "mouse, strain Swiss, females, in drinking water, site: lung, lesion: adenoma, dosed 50 weeks, study length 51 weeks", "value": 1.97, "unit": "mg/kg/day"}, {"measurement": "TD50", "setting": "mouse, strain Swiss, males, in drinking water, site: all sites, lesion: lymphoma, dosed 50 weeks, study length 51 weeks", "value": 1.27, "unit": "mg/kg/day"}, {"measurement": "TD50", "setting": "mouse, strain Swiss, males, in drinking water, site: any site (literature study), lesion: one or several types, types not named, dosed 50 weeks, study length 51 weeks", "value": 0.353, "unit": "mg/kg/day"}, {"measurement": "TD50", "setting": "mouse, strain Swiss, males, in drinking water, site: lung, lesion: adenoma, dosed 50 weeks, study length 51 weeks", "value": 0.382, "unit": "mg/kg/day"}, {"measurement": "TD50", "setting": "rat, strain Fischer 344, females, by gavage, site: Zymbal's gland, lesion: carcinoma, dosed 37 weeks, study length 60 weeks", "value": 3.15, "unit": "mg/kg/day"}, {"measurement": "TD50", "setting": "rat, strain Fischer 344, females, by gavage, site: colon, lesion: adenoma, dosed 37 weeks, study length 60 weeks", "value": 1.53, "unit": "mg/kg/day"}, {"measurement": "TD50", "setting": "rat, strain Fischer 344, females, by gavage, site: forestomach, lesion: squamous-cell carcinoma, dosed 37 weeks, study length 60 weeks", "value": 3.15, "unit": "mg/kg/day"}, {"measurement": "TD50", "setting": "rat, strain Fischer 344, females, by gavage, site: mammary gland, lesion: adenocarcinoma, dosed 37 weeks, study length 60 weeks", "value": 0.452, "unit": "mg/kg/day"}, {"measurement": "TD50", "setting": "rat, strain Fischer 344, males, by gavage, site: Zymbal's gland, lesion: carcinoma, dosed 37 weeks, study length 55 weeks", "value": 0.879, "unit": "mg/kg/day"}, {"measurement": "TD50", "setting": "rat, strain Fischer 344, males, by gavage, site: Zymbal's gland, lesion: several types, types named in the paper, dosed 37 weeks, study length 55 weeks", "value": 0.568, "unit": "mg/kg/day"}, {"measurement": "TD50", "setting": "rat, strain Fischer 344, males, by gavage, site: colon, lesion: adenocarcinoma, dosed 37 weeks, study length 55 weeks", "value": 0.983, "unit": "mg/kg/day"}, {"measurement": "TD50", "setting": "rat, strain Fischer 344, males, by gavage, site: colon, lesion: several types, types named in the paper, dosed 37 weeks, study length 55 weeks", "value": 0.24, "unit": "mg/kg/day"}, {"measurement": "TD50", "setting": "rat, strain Fischer 344, males, by gavage, site: forestomach, lesion: several types, types named in the paper, dosed 37 weeks, study length 55 weeks", "value": 0.203, "unit": "mg/kg/day"}, {"measurement": "TD50", "setting": "rat, strain Fischer 344, males, by gavage, site: forestomach, lesion: squamous-cell carcinoma, dosed 37 weeks, study length 55 weeks", "value": 0.637, "unit": "mg/kg/day"}, {"measurement": "TD50", "setting": "rat, strain Fischer 344, males, by gavage, site: lung, lesion: malignant tumor, dosed 37 weeks, study length 55 weeks", "value": 0.602, "unit": "mg/kg/day"}, {"measurement": "TD50", "setting": "rat, strain Fischer 344, males, by gavage, site: lung, lesion: several types, types named in the paper, dosed 37 weeks, study length 55 weeks", "value": 0.0776, "unit": "mg/kg/day"}, {"measurement": "TD50", "setting": "rat, strain MRC-Wistar, females, in drinking water, site: all sites, lesion: B-cell lymphoma, dosed 39 weeks, study length 85 weeks", "value": 3.16, "unit": "mg/kg/day"}, {"measurement": "TD50", "setting": "rat, strain MRC-Wistar, females, in drinking water, site: all sites, lesion: myelocytic leukemia, dosed 39 weeks, study length 85 weeks", "value": "3.16 mg/kg/day (inactive)"}, {"measurement": "TD50", "setting": "rat, strain MRC-Wistar, females, in drinking water, site: any site (literature study), lesion: one or several types, types not named, dosed 39 weeks, study length 85 weeks", "value": 0.32, "unit": "mg/kg/day"}, {"measurement": "TD50", "setting": "rat, strain MRC-Wistar, females, in drinking water, site: liver, lesion: one or several types, types not named, dosed 39 weeks, study length 85 weeks", "value": 10, "unit": "mg/kg/day"}, {"measurement": "TD50", "setting": "rat, strain MRC-Wistar, males, in drinking water, site: all sites, lesion: B-cell lymphoma, dosed 39 weeks, study length 85 weeks", "value": 1.56, "unit": "mg/kg/day"}, {"measurement": "TD50", "setting": "rat, strain MRC-Wistar, males, in drinking water, site: all sites, lesion: lymphocytic lymphoma, dosed 52 weeks, study length 70 weeks", "value": 2.03, "unit": "mg/kg/day"}, {"measurement": "TD50", "setting": "rat, strain MRC-Wistar, males, in drinking water, site: all sites, lesion: malignant lymphoma, dosed 52 weeks, study length 70 weeks", "value": 2.03, "unit": "mg/kg/day"}, {"measurement": "TD50", "setting": "rat, strain MRC-Wistar, males, in drinking water, site: all sites, lesion: myelocytic leukemia, dosed 39 weeks, study length 85 weeks", "value": "2.02 mg/kg/day (inactive)"}, {"measurement": "TD50", "setting": "rat, strain MRC-Wistar, males, in drinking water, site: any site (literature study), lesion: one or several types, types not named, dosed 39 weeks, study length 85 weeks", "value": 0.195, "unit": "mg/kg/day"}, {"measurement": "TD50", "setting": "rat, strain MRC-Wistar, males, in drinking water, site: any site (literature study), lesion: several types, types named in the paper, dosed 52 weeks, study length 70 weeks", "value": 0.36, "unit": "mg/kg/day"}, {"measurement": "TD50", "setting": "rat, strain MRC-Wistar, males, in drinking water, site: bone, lesion: osteosarcoma, dosed 39 weeks, study length 85 weeks", "value": 1.56, "unit": "mg/kg/day"}, {"measurement": "TD50", "setting": "rat, strain MRC-Wistar, males, in drinking water, site: bone, lesion: osteosarcoma, dosed 52 weeks, study length 70 weeks", "value": 1.52, "unit": "mg/kg/day"}, {"measurement": "TD50", "setting": "rat, strain MRC-Wistar, males, in drinking water, site: liver, lesion: one or several types, types not named, dosed 39 weeks, study length 85 weeks", "value": 2.77, "unit": "mg/kg/day"}, {"measurement": "TD50", "setting": "rat, strain Wistar, males, in drinking water, site: all sites, lesion: B-cell lymphoma, dosed 90 weeks, study length 90 weeks", "value": 15.9, "unit": "mg/kg/day"}, {"measurement": "TD50", "setting": "rat, strain Wistar, males, in drinking water, site: all sites, lesion: myelocytic leukemia, dosed 90 weeks, study length 90 weeks", "value": 3.66, "unit": "mg/kg/day"}, {"measurement": "TD50", "setting": "rat, strain Wistar, males, in drinking water, site: any site (literature study), lesion: one or several types, types not named, dosed 90 weeks, study length 90 weeks", "value": 0.576, "unit": "mg/kg/day"}, {"measurement": "TD50", "setting": "rat, strain Wistar, males, in drinking water, site: kidney, lesion: one or several types, types not named, dosed 90 weeks, study length 90 weeks", "value": 4.93, "unit": "mg/kg/day"}, {"measurement": "TD50", "setting": "rat, strain Wistar, males, in drinking water, site: lung, lesion: one or several types, types not named, dosed 90 weeks, study length 90 weeks", "value": 1.59, "unit": "mg/kg/day"}, {"measurement": "TD50", "setting": "rat, strain Wistar, males, in drinking water, site: mammary gland, lesion: adenocarcinoma, dosed 90 weeks, study length 90 weeks", "value": 4.14, "unit": "mg/kg/day"}]}]}
